Experimental data: patent US11512280B2, “Method for culturing spore-forming bacteria, and method for producing useful substance” (priority 2016, dated 2022)

Legend:
Assay type in all cases: cell-based
[1] = tested on: Bacillus subtilis MBI-600; assay: Culture of Bacillus subtilis with sporulation-inhibiting and sporulation-accelerating substances, 45 hours (Example 2)
Description: (§1) Using a 500 ml Erlenmeyer flask (with baffles), each 100 ml of media listed in Table 1 was prepared and then autoclave sterilization was carried out. Note that glucose was separately sterilized and aseptically mixed in order to avoid Maillard reaction.
(§2) Test sections were set as described in Table 3. According to the conditions of each test section, the filter-sterilized aqueous solution of each sporulation-inhibiting substance was added aseptically to each medium. According to the conditions of each test section, one loopful of Bacillus subtilis MBI-600 was taken from a colony grown on a nutrient agar medium, inoculated, and then cultured with shaking at 30° C. and 150 rpm.
Sixteen (16) hours after the start of culture, each sporulation-accelerating substance was added according to the conditions of each test section, culture was continued. Forty-five (45) hours after the start of culture, culture was stopped.
(§3) Each of the thus obtained culture liquid was diluted 10-fold with sterile water, and then the bacterial cell concentration (vegetative cells and spores) and the sporulation rate (spore concentration/bacterial cell concentration) were measured using an optical microscope and a bacterial cell counter.

[2] = tested on: Bacillus thuringiensis NBRC 101235 strain; assay: Culture of Bacillus thuringiensis with sporulation-inhibiting substance, 40 hours (Example 3); details: for Bacterial cell concentration / Spore concentration / Sporulation rate: 40 hours culture
Description: as §1
as §2, with “According” for “Test sections were set as described in Table 3. According”, “thuringiensis NBRC 101235 strain” for “subtilis MBI-600”, “rpm for 40 hours.” for “rpm.”
as §3

[3] = tested on: Bacillus subtilis MBI-600; assay: Culture of Bacillus subtilis with sporulation-inhibiting substance, 64 hours (Example 1); details: for Bacterial cell concentration / Spore concentration / Sporulation rate: 64 hours culture; for bacterial cell concentrations as the concentration of the substance increased: trend over tested concentrations
Description: Using a 500 ml Erlenmeyer flask (with baffles), each 100 ml of media listed in Table 1 was prepared and then autoclave sterilization was carried out. Glucose was separately sterilized and aseptically mixed in order to avoid Maillard reaction.
as §2, with “According” for “Test sections were set as described in Table 3. According”, “One” for “According to the conditions of each test section, one”, “rpm for 64 hours.” for “rpm.”
as §3

[4] = sporulation-accelerating substance 3,000 ppm added at 16 hours, no inhibiting substance, 45 hours culture
[5] = 1.4 ppm plus decoyinine 200 ppm at 16 hours, 45 hours
[6] = 1.4 ppm, no accelerating substance, 45 hours
[7] = 0.3 ppm plus ammonium lactate 3,000 ppm at 16 hours, 45 hours
[8] = 0.3 ppm, no accelerating substance, 45 hours
[9] = 0.5 ppm plus ammonium acetate 2,000 ppm at 16 hours, 45 hours
[10] = 0.5 ppm plus ammonium acetate 3,000 ppm at 16 hours, 45 hours
[11] = 0.5 ppm plus ammonium acetate 4,000 ppm at 16 hours, 45 hours
[12] = 0.5 ppm plus ammonium lactate 3,000 ppm at 16 hours, 45 hours
[13] = 0.5 ppm, no accelerating substance, 45 hours
[14] = 1.0 ppm, no accelerating substance, 45 hours
[15] = 2.0 ppm, no accelerating substance, 45 hours

With `CC(O)C(=O)O.N` (centres unmarked) [Ammonium lactate] the “sporulation rate compared with test sections in which no accelerating substance had been added” value ([1]; ammonium lactate added, regardless of the lincomycin concentration) was “improvement was observed”, the “spore productivity compared with test sections in which no such substance had been added” value ([1]; lincomycin 0.3 ppm and 0.5 ppm with ammonium lactate added) was “significantly higher” and the Bacterial cell concentration [1, 4] was 5.2e+09 mL⁻¹. For the same compound, the Spore concentration [1, 4] was 4.8e+09 mL⁻¹ and the Sporulation rate [1, 4] was 91%.
In the case of `CC(=O)O.N` [Ammonium acetate], the “bacterial cell concentration and sporulation rate as the amount of ammonium acetate added increased” value ([1]; lincomycin 0.5 ppm with ammonium acetate) is reported as “increased”, the “spore productivity compared with test sections in which no such substance had been added” value ([1]; lincomycin 0.5 ppm with ammonium acetate added) is reported as “significantly higher” and the Bacterial cell concentration [1, 4] is reported as 4.6e+09 mL⁻¹. For the same compound, the Spore concentration [1, 4] was 4.2e+09 mL⁻¹ and the Sporulation rate [1, 4] was 91%.
For `C=C1O[C@@](CO)(n2cnc3c(N)ncnc32)[C@H](O)[C@@H]1O` [Decoyinine], the Sporulation rate ([1]; decoyinine added during culture in addition to chloramphenicol 1.4 ppm) was “improvement was observed”.
In the case of `O=C(N[C@H](CO)[C@H](O)c1ccc([N+](=O)[O-])cc1)C(Cl)Cl` [Chloramphenicol], the “bacterial cell concentration and spore concentration” value ([2]; 2.0 ppm) is reported as “tended to increase”, the Bacterial cell concentration ([2]; 2.0 ppm) is reported as 1.6e+09 mL⁻¹ and the Spore concentration ([2]; 2.0 ppm) is reported as 1.3e+09 mL⁻¹. For the same compound, the Sporulation rate ([2]; 2.0 ppm) was 79%, the “the growth and the effect of inhibiting sporulation” value ([2]; 6.0 ppm) was “confirmed” and the Bacterial cell concentration ([2]; 6.0 ppm) was 8e+06 mL⁻¹. For the same compound, the Sporulation rate ([2]; 6.0 ppm) was 0%, the “effect of inhibiting sporulation” value ([1]; 1.4 ppm) was “observed” and the Bacterial cell concentration [1, 5] was 5.4e+09 mL⁻¹. The Spore concentration [1, 5] was 4.1e+09 mL⁻¹, the Sporulation rate [1, 5] was 76% and the Bacterial cell concentration [1, 6] was 5.4e+09 mL⁻¹. For the same compound, the Sporulation rate [1, 6] was 0% and the “spore productivity compared with test sections in which no such substance had been added” value ([1]; chloramphenicol 1.4 ppm, both test sections (with and without decoyinine)) was “improved”.
For `[H]/N=C(/N)N[C@H]1[C@H](O)[C@@H](O)[C@H](O[C@@H]2O[C@@H](C)[C@](O)(C=O)[C@H]2O[C@@H]2O[C@@H](CO)[C@H](O)[C@@H](O)[C@@H]2NC)[C@@H](N/C(N)=N\[H])[C@@H]1O` [Streptomycin], the “effect of inhibiting sporulation” value ([3]; 12.5 ppm) was “not observed”, the Bacterial cell concentration ([3]; 12.5 ppm added) was 4.3e+09 mL⁻¹ and the Spore concentration ([3]; 12.5 ppm added) was 4.3e+09 mL⁻¹. The Sporulation rate ([3]; 12.5 ppm added) was 100%, the “effect of inhibiting sporulation” value ([3]; 15.0 ppm) was “observed” and the Bacterial cell concentration ([3]; 15.0 ppm added) was 5.5e+09 mL⁻¹. For the same compound, the Spore concentration ([3]; 15.0 ppm added) was 3e+09 mL⁻¹, the Sporulation rate ([3]; 15.0 ppm added) was 54% and the “bacterial cell concentrations as the concentration of the substance increased” value [3] was “tended to increase”.
`CCC[C@@H]1C[C@@H](C(=O)N[C@@H]([C@H]2O[C@H](SC)[C@H](O)[C@@H](O)[C@H]2O)[C@@H](C)O)N(C)C1` [Lincomycin] gave a Bacterial cell concentration ([2]; 5.0 ppm) of 1.4e+09 mL⁻¹, a Spore concentration ([2]; 5.0 ppm) of 1.2e+09 mL⁻¹ and a Sporulation rate ([2]; 5.0 ppm) of 86%. For the same compound, the “bacterial cell concentration and spore concentration” value ([2]; 10.0 ppm or lower) was “tended to increase”, the Bacterial cell concentration ([2]; 10.0 ppm) was 1.4e+09 mL⁻¹ and the Spore concentration ([2]; 10.0 ppm) was 1e+09 mL⁻¹. The Sporulation rate ([2]; 10.0 ppm) was 71%, the “effect of inhibiting sporulation” value ([2]; 12.5 ppm) was “confirmed” and the Bacterial cell concentration ([2]; 12.5 ppm) was 9e+08 mL⁻¹. The Spore concentration ([2]; 12.5 ppm) was 1e+08 mL⁻¹, the Sporulation rate ([2]; 12.5 ppm) was 13% and the “effect of inhibiting sporulation” value ([3]; 0.1 ppm) was “not observed”. The Spore concentration ([3]; 0.1 ppm added) was 4.7e+09 mL⁻¹, the Sporulation rate ([3]; 0.1 ppm added) was 100% and the Bacterial cell concentration ([3]; 0.1 ppm added, carbon content 9.1 g/L) was 4.7e+09 mL⁻¹. For the same compound, the “effect of inhibiting sporulation” value ([3]; 1 ppm) was “observed”, the Bacterial cell concentration ([3]; 1.0 ppm added) was 7e+09 mL⁻¹ and the Sporulation rate ([3]; 1.0 ppm added) was 0%. The “bacterial cell concentrations as the concentration of the substance increased” value [3] was “tended to increase”, the “effect of inhibiting sporulation” value ([1]; 0.3 ppm) was “not observed” and the Bacterial cell concentration [1, 7] was 5.6e+09 mL⁻¹. The Spore concentration [1, 7] was 5.1e+09 mL⁻¹, the Sporulation rate [1, 7] was 91% and the Bacterial cell concentration [1, 8] was 3.3e+09 mL⁻¹. The Spore concentration [1, 8] was 2.7e+09 mL⁻¹, the Sporulation rate [1, 8] was 80% and the “effect of inhibiting sporulation” value ([1]; 0.5 ppm or more) was “observed”. The Bacterial cell concentration [1, 9] was 6.4e+09 mL⁻¹, the Spore concentration [1, 9] was 4.1e+09 mL⁻¹ and the Sporulation rate [1, 9] was 64%. The Bacterial cell concentration [1, 10] was 7.6e+09 mL⁻¹, the Spore concentration [1, 10] was 5.4e+09 mL⁻¹ and the Sporulation rate [1, 10] was 71%. It also gave a Bacterial cell concentration [1, 11] of 8.4e+09 mL⁻¹, a Spore concentration [1, 11] of 6.1e+09 mL⁻¹ and a Sporulation rate [1, 11] of 72%. It also gave a Bacterial cell concentration [1, 12] of 7.2e+09 mL⁻¹, a Spore concentration [1, 12] of 5.7e+09 mL⁻¹ and a Sporulation rate [1, 12] of 79%. For the same compound, the Bacterial cell concentration [1, 13] was 4.4e+09 mL⁻¹, the Sporulation rate [1, 13] was 0% and the Bacterial cell concentration [1, 14] was 5.1e+09 mL⁻¹. The Sporulation rate [1, 14] was 0%, the Bacterial cell concentration [1, 15] was 5.9e+09 mL⁻¹ and the Sporulation rate [1, 15] was 0%. The “bacterial cell concentrations as the concentration of the substance increased” value ([1]; trend over tested concentrations) was “tended to increase”.
